Data taken from the supplement of paper PMC10307832.

Experiments:
Test in all cases: relative viability (nuclei count vs DMSO), 5 days (fraction); higher = more cells survive
[1] = compound: Cc1ccc(C(=O)Nc2cccc(C(F)(F)F)c2)cc1Nc1cncc(C(N)=O)c1 [ALW-II-49-7] + Cc1cc(Nc2cc(N3CCN(C)CC3)nc(Sc3ccc(NC(=O)C4CC4)cc3)n2)n[nH]1 [Tozasertib] (partner 0.1 µM)
Procedure, shortened: (§1)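 Relative viability was taken as the ratio of nuclei in treated wells to nuclei in vehicle wells. Lung cancer cell lines in 1536-well plates received compounds by pin tool one day after seeding, either one drug alone or a fixed anchor-drug dose plus five library-drug doses (not always all listed) in √10 steps. Nuclei were counted on 4× images after 5 days of treatment, and values are medians of duplicate plates.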

[2] = compound: Cc1nc(Nc2ncc(C(=O)Nc3c(C)cccc3Cl)s2)cc(N2CCN(CCO)CC2)n1 [Dasatinib] + COc1cc2c(Oc3ccc(NC(=O)C4(C(=O)Nc5ccc(F)cc5)CC4)cc3F)ccnc2cc1OCCCN1CCOCC1 [Foretinib] (partner 0.25 µM)
Procedure, shortened: as §1

[3] = compound: Cc1nc(Nc2ncc(C(=O)Nc3c(C)cccc3Cl)s2)cc(N2CCN(CCO)CC2)n1 [Dasatinib] + CS(=O)(=O)CCNCc1ccc(-c2ccc3ncnc(Nc4ccc(OCc5cccc(F)c5)c(Cl)c4)c3c2)o1 [Lapatinib] (partner 2 µM)
Procedure, shortened: as §1

[4] = compound: Cc1nc(Nc2ncc(C(=O)Nc3c(C)cccc3Cl)s2)cc(N2CCN(CCO)CC2)n1 [Dasatinib] + O=C(CCCCCCC(=O)Nc1ccccc1)NO [Vorinostat] (partner 1 µM)
Procedure, shortened: as §1

Row | Cell Line | relative viability ([1]; first compound 0.08 µM) | relative viability ([1]; first compound 0.253 µM) | relative viability ([1]; first compound 0.8 µM) | relative viability ([1]; first compound 2.53 µM) | relative viability ([1]; first compound 8 µM) | relative viability ([2]; first compound 0.005 µM) | relative viability ([2]; first compound 0.01581 µM) | relative viability ([2]; first compound 0.05 µM) | relative viability ([2]; first compound 0.1581 µM) | relative viability ([2]; first compound 0.5 µM) | relative viability ([3]; first compound 0.005 µM) | relative viability ([3]; first compound 0.01581 µM) | relative viability ([3]; first compound 0.05 µM) | relative viability ([3]; first compound 0.1581 µM) | relative viability ([3]; first compound 0.5 µM) | relative viability ([4]; first compound 0.005 µM) | relative viability ([4]; first compound 0.01581 µM) | relative viability ([4]; first compound 0.05 µM) | relative viability ([4]; first compound 0.1581 µM) | relative viability ([4]; first compound 0.5 µM)
1 | LXF-289 | 0.187 | 0.194 | 0.168 | 0.184 | 0.182 | 1.01 | 0.983 | 0.914 | 0.513 | 0.125 | 0.941 | 1.01 | 0.971 | 0.604 | 0.223 | 0.754 | 0.779 | 0.762 | 0.495 | 0.254
2 | NCI-H23 | 0.308 | 0.553 | 0.337 | 0.404 | 0.363 | 0.864 | 0.649 | 0.676 | 0.457 | 0.484 | 1.01 | 1.09 | 0.911 | 0.539 | 0.764 | 0.519 | 0.567 | 0.512 | 0.349 | 0.314
3 | NCI-H322M | 0.436 | 0.484 | 0.476 | 0.411 | 0.367 | 0.909 | 0.75 | 0.485 | 0.285 | 0.233 | 0.582 | 0.345 | 0.373 | 0.246 | 0.189 | 0.668 | 0.535 | 0.426 | 0.311 | 0.258
4 | NCI-H358 | 0.0887 | 0.107 | 0.11 | 0.0927 | 0.085 | 0.649 | 0.532 | 0.433 | 0.198 | 0.162 | 0.484 | 0.377 | 0.295 | 0.251 | 0.291 | 0.513 | 0.47 | 0.388 | 0.15 | 0.128
5 | NCI-H460 | 0.354 | 0.597 | 0.421 | 0.273 | 0.0328 | 1.04 | 0.904 | 0.808 | 0.716 | 0.746 | 1.06 | 0.598 | 0.743 | 0.482 | 0.376 | 0.659 | 0.619 | 0.877 | 0.475 | 0.315
6 | NCI-H520 | 0.504 | 0.463 | 0.482 | 0.31 | 0.328 | 0.631 | 0.427 | 0.36 | 0.175 | 0.175 | 0.729 | 0.447 | 0.464 | 0.228 | 0.21 | 0.677 | 0.476 | 0.418 | 0.227 | 0.229
7 | NCI-H596 | 1.02 | 0.939 | 0.92 | 0.782 | 1.14 | 0.688 | 0.66 | 0.521 | 0.376 | 0.291 | 1.03 | 0.809 | 0.714 | 0.586 | 0.423 | 0.59 | 0.384 | 0.412 | 0.313 | 0.322
8 | NCI-H647 | 0.37 | 0.409 | 0.204 | 0.181 | 0.177 | 1.11 | 1.17 | 0.649 | 0.276 | 0.252 | 0.524 | 0.449 | 0.393 | 0.237 | 0.189 | 0.674 | 0.49 | 0.415 | 0.149 | 0.184
9 | NCI-H650 | 0.719 | 0.737 | 0.673 | 0.577 | 0.481 | 1.02 | 0.875 | 1.01 | 0.759 | 0.475 | 0.471 | 0.907 | 0.723 | 0.555 | 0.387 | 0.413 | 0.564 | 0.381 | 0.384 | 0.287
10 | NCI-H661 | 0.388 | 0.369 | 0.341 | 0.362 | 0.337 | 1.02 | 1.03 | 0.964 | 0.735 | 0.599 | 0.295 | 0.29 | 0.276 | 0.318 | 0.234 | 0.927 | 0.791 | 0.851 | 0.813 | 0.74
11 | NCI-H727 | 0.599 | 0.647 | 0.642 | 0.687 | 0.538 | 0.616 | 0.512 | 0.431 | 0.278 | 0.185 | 0.588 | 0.667 | 0.581 | 0.37 | 0.277 | 1.18 | 0.97 | 0.841 | 0.871 | 0.264
12 | NCI-H838 | 0.245 | 0.274 | 0.264 | 0.259 | 0.265 | 0.679 | 0.654 | 0.552 | 0.313 | 0.236 | 0.925 | 0.678 | 0.504 | 0.252 | 0.237 | 0.678 | 0.632 | 0.584 | 0.422 | 0.348
13 | NCI-H1355 | 0.523 | 0.519 | 0.445 | 0.404 | 0.434 | 1.03 | 0.719 | 0.908 | 0.722 | 0.644 | 0.988 | 0.902 | 0.898 | 0.704 | 0.49 | 0.618 | 0.54 | 0.655 | 0.445 | 0.331
